Source: PMC11605291 (Frontiers in Pharmacology, 2024)
Read-outs that look alike come from different tables or passages of the source.

Experiments:
[1] = Plasma pharmacokinetics of amdizalisib (LC-MS/MS) after a single oral dose of [14C]amdizalisib suspension; format: in vivo, human; details: for CL/F: amdizalisib in plasma, single oral 30 mg/100 µCi suspension, mean ± SD
Description: (§1) Six subjects were admitted to the clinical research center 1 day prior to dosing, with random urine and fecal samples collected as blank excretion controls. After fasting overnight for at least 10 h, a blank blood sample was collected after a regular breakfast (449 kcal, with ∼35% energy from fat) on Day 1. […] It is noteworthy that the medication administration duration for each subject was strictly kept within 10 min. Scheduled collection of urine, feces, and blood samples, and safety monitoring proceeded until completion.
(§2) Venous blood samples were collected within 0.5 h prior to administration and at 0.5, 1, 1.5, 2, 3, 4, 6, 8, 12, 24, 36, 48, 72, and 96 h after administration. About 8 mL of blood was collected at each time point in the anticoagulant collection tube containing K2-EDTA. The centrifuged plasma was used for non-radioactive and radioactive pharmacokinetic and biotransformation (metabolite) analyses. In addition, about 2 mL of venous blood was collected within 0.5 h before administration and at 1, 4, 8, 12, 24, and 48 h after administration for whole blood radioactivity analysis. Additional 10 mL of venous blood for each time point was collected at 1, 4, 8, 12, 24, and 48 h after administration, and the plasma was obtained by centrifugation for biotransformation (metabolites) analysis. Urine and fecal samples were collected until 144 h (4 subjects) or 192 h (2 subjects) after administration.
Chromatographic separation was achieved on an XBridge C18 column, maintained at 40°C, with a mobile phase consisting of 2 mM ammonium formate in water (A) and methanol (B). A gradient elution was employed at a flow rate of 0.6 mL/min. The autosampler was set to 5°C, with an injection volume of 5 μL. […] Each analytical run included calibration standards and quality control samples to ensure method accuracy and precision. The corrected total concentration data of labelled (^14C) and unlabeled (^12C) analytes were given directly by Analyst data processing software. The standard curve consists of 0.500, 1.00, 2.00, 10.0, 50.0, 200, 450, 500 ng/mL. The quality control (QC) sample concentrations were 0.5 (lower limit of quantification QC), 1.50 (lower QC), 20.0 (low to medium QC), 250 (medium QC), 400 (high QC) ng/mL, respectively.
Pharmacokinetic analysis was performed using Phoenix WinNonlin® software version 8.3. […] Non-compartmental model was used to estimate the main PK parameters. Descriptive statistics applied to parameters including maximum plasma concentration after administration (Cmax), the time to reach maximum plasma concentration after administration (Tmax), elimination rate constant (λz), area under the plasma concentration-time curve from the time 0 to the time of last quantifiable concentration (AUC0-t, obtained by the linear trapezoidal method), area under the plasma concentration-time curve from time 0 extrapolated to infinity (AUC0-∞, AUC0-∞ = AUC0-t + Ct/λ z ), half-life (t1/2, t1/2 = ln ([…])/λz), mean residence time (MRT, MRT = AUMC/AUC), apparent clearance (CL/F, CL/F = Dose/AUC0-∞), apparent volume of distribution based on terminal phase (Vz/F, Vz/F = Dose/(λz×AUC0-∞)).

[2] = Excretion of radioactivity in urine and feces (mass balance); format: in vivo, human
Description: as §1
The excreta sample collection ceased when total radioactivity from excreta surpassed 80% of the administered dose, or less than 1% of the dose for two consecutive intervals. Blood sample collection ceased when the radioactivity of plasma at 2 consecutive time points was lower than 3 times the radioactivity at 0 h before administration. Based on the interim results, sample collection concluded earlier than initially planned.
as §2
Radioactivity was measured using an oxidative combustion apparatus and liquid scintillation counter (LSC). After the whole blood sample was vortexed thoroughly, two portions (about 0.5 g each) were weighed into the combustion boat, and after complete combustion by oxidative combustion apparatus, [^14C]carbon dioxide generated from the combustion of the samples was captured by scintillation solution and measured by liquid scintillation counter. After plasma samples were fully vortexed, one portion (approximately 0.5 g) was weighed into a scintillation vial, mixed well with the scintillation solution, and measured using a liquid scintillation counter. When the radioactivity of the plasma sample after administration is below the LLOQ, additional samples can be added, up to a maximum of 1 g. After mixing the urine well, weighed one portion (about 1 g) into a scintillation bottle, then added scintillation solution to mix well, and use a liquid scintillation counter to measure the radioactivity. The feces were transferred to labelled containers with known empty weights and soaked in an appropriate amount of 50% aqueous isopropanol solution for about 2–4 h or for a certain period of time (e.g., overnight) at 1°C–9°C. Before homogenization, the solution was made up to a suitable dilution by the addition of an appropriate amount of 50% aqueous isopropanol, the total weight was weighed and recorded, and the homogenization was carried out using a tissue homogenizer. Two equal portions of the homogenate (approximately 0.3 g) were weighed into a combustion boat and fully combusted by an oxidative combustion apparatus, and the [^14C]carbon dioxide generated from the combustion of the samples was captured with a scintillation solution and measured using a liquid scintillation counter.
The combustion efficiency of the oxidative combustor was verified by performing a combustion recovery test using a^14C-containing standard solution of known radioactivity concentration prior to combustion of the sample. […]

[3] = set-up: method as in Cao W. et al., 2023; details: 30 mg amdizalisib capsules, fed condition, Chinese healthy volunteers ref Cao W. et al., 2023; cited from earlier work
[4] = Safety and tolerability evaluation; details: for serious adverse events or deaths: 6 healthy Chinese males
Description: The safety of the subjects was assessed by adverse events, laboratory test results, vital signs, and 12-lead electrocardiogram (ECG). AEs were recorded from the time of administration and serious adverse events (SAE) were recorded from the time that subjects signed the informed consent. Subjects with elevated aspartate aminotransferase (AST) and/or alanine aminotransferase (ALT) levels (≥3 × ULN) combined with elevated serum total bilirubin (≥2 × ULN) or clinical jaundice in the same blood sample should be recorded as a specific adverse event.

## C[C@H](Nc1ncnc(N)c1C#N)c1cc2ncc(Cl)n2nc1-c1ccccc1 [Amdizalisib]
[1]
  CL/F: 16.8 ± 4.44 L/h
[1]; listed as amdizalisib
  CL/F: 16.8 L/h
[1]; male, human, plasma, oral, 30 mg, below the lower quantifiable limit in 4 of 6 subjects, detectable in 2
  concentration at 72 h: < 0.5 ng/mL
[1]; male, human, plasma, po, 30 mg
  AUC(0-inf): 1880 ± 478 ng·h/mL
  AUC(0-t): 1870 ± 474 ng·h/mL
  Cmax: 244 ± 48.9 ng/mL
  half-life: 8.34 ± 2.43 h
[1]; male, human, plasma, po, 30 mg, read-out: MRT0-t
  MRT last: 9.65 ± 1.48 h
[1]; male, human, plasma, po, 30 mg, read-out: Vz/F
  Vd/F: 192 ± 28 L
[2]; Total (mean ± SD), 6 subjects, feces 0–144/192 h
  Aefeces, % of dose: 62.08 % of dose
[2]; Total (mean ± SD), 6 subjects, feces 0–144/192 h, listed as [^14C] Amdizalisib
  Aefeces, % of dose: 62.08 ± 3.00 % of dose
[2]; Total (mean ± SD), 6 subjects, urine 0–144/192 h
  Aeurine, % of dose: 37.15 % of dose
[2]; Total (mean ± SD), 6 subjects, urine 0–144/192 h, listed as [^14C] Amdizalisib
  Aeurine, % of dose: 37.15 ± 2.84 % of dose
[2]; Total (mean ± SD), 6 subjects, urine and feces 0–144/192 h, listed as [^14C] Amdizalisib
  Aetotal, % of dose: 99.23 ± 0.30 % of dose
[2]; Total (mean ± SD), 6 subjects, urine and feces 0–144/192 h, listed as [^14C]amdizalisib
  Aetotal, % of dose: 99.23 % of dose
[2]; single oral dose of [14C]amdizalisib suspension
  time within which completely excreted: ≤ 168 h
[2]; subject 1,001, feces 0–192 h
  Aefeces, % of dose: 58.49 % of dose
[2]; subject 1,001, urine 0–192 h
  Aeurine, % of dose: 40.40 % of dose
[2]; subject 1,001, urine and feces 0–192 h
  Aetotal, % of dose: 98.89 % of dose
[2]; subject 1,002, feces 0–192 h
  Aefeces, % of dose: 63.33 % of dose
[2]; subject 1,002, urine 0–192 h
  Aeurine, % of dose: 35.85 % of dose
[2]; subject 1,002, urine and feces 0–192 h
  Aetotal, % of dose: 99.18 % of dose
[2]; subject 1,003, feces 0–144 h
  Aefeces, % of dose: 64.48 % of dose
[2]; subject 1,003, urine 0–144 h
  Aeurine, % of dose: 35.12 % of dose
[2]; subject 1,003, urine and feces 0–144 h
  Aetotal, % of dose: 99.60 % of dose
[2]; subject 1,004, feces 0–144 h
  Aefeces, % of dose: 58.70 % of dose
[2]; subject 1,004, urine 0–144 h
  Aeurine, % of dose: 40.65 % of dose
[2]; subject 1,004, urine and feces 0–144 h
  Aetotal, % of dose: 99.35 % of dose
[2]; subject 1,005, feces 0–144 h
  Aefeces, % of dose: 61.77 % of dose
[2]; subject 1,005, urine 0–144 h
  Aeurine, % of dose: 37.11 % of dose
[2]; subject 1,005, urine and feces 0–144 h
  Aetotal, % of dose: 98.88 % of dose
[2]; subject 1,006, feces 0–144 h
  Aefeces, % of dose: 65.73 % of dose
[2]; subject 1,006, urine 0–144 h
  Aeurine, % of dose: 33.74 % of dose
[2]; subject 1,006, urine and feces 0–144 h
  Aetotal, % of dose: 99.47 % of dose
[2]; urine plus feces
  average excretion of total radioactivity within 96 h after administration: over 94 % of the administered dose
  excretion within 96 h as share of the total excretion from 0 h to 192 h: 94.74%
[2]; urine plus feces, listed as [^14C]amdizalisib
  average excretion of total radioactivity within 96 h after administration: 94.01 % of the administered dose
[3]
  AUC0-∞: 1,574 h٠ng/mL
  Cmax: 152 ng/mL
[4]; 5 of 6 subjects, single oral 30 mg/100 µCi
  subjects reporting TEAEs: 83.3%
[4]
  serious adverse events or deaths: No serious adverse events or drug-related deaths occured
[4]; listed as amdizalisib
  serious adverse events or deaths: No subjects reported serious adverse events or adverse events leading to death
[4]; all TEAEs, considered study drug related
  severity of TEAEs: grade 1
[4]; four subjects
  subjects reporting diarrhea as TEAE: 66.7%
[4]; throughout the study, 6 subjects
  number of TEAEs reported: 11
[4]; two subjects, shortened ECG PR, elevated low-density lipoprotein, positive urine white blood cells
  subjects reporting abnormal laboratory test results: 33.3%
